From patent US11026877B2, “Cosmetic compositions for bleaching the skin” (Henkel AG & Co. KGaA, priority 2014, dated 2021) come the findings set out here.

Type in all cases: cell-based, human
Set-up in all cases: key: + stands for increased expression; − for reduced expression; 0 for no change
Common to all, as to conditions: topical, 24 hours, 30 μL, in water with 3% by weight PEG-40 Hydrogenated Castor Oil; in comparison with the blank control

The subject of one assay is TRP2. Kind of assay: Gene expression by quantitative real-time PCR in reconstructed melanocyte models type VI (Skinethic): TRP2. The protocol:
(§1) The effect of licorice extract (oil-soluble) and ascorbyl tetraisopalmitate on the expression of melanogenesis-relevant genes was studied in reconstructed melanocyte models type VI from the company Skinethic. In this case, human keratinocytes were cultured together with type VI melanocytes, so that a very dark skin model forms. Together the cells form a three-dimensional epithelial tissue. Three models each were treated topically for 24 hours with 30 μL of the test formulations. In this case, the formulation is first applied to the model and then carefully distributed with a brush. Incubation then occurs at 37° C. with 5% CO2. Untreated models and models treated with a blank control (3% PEG-40 Hydrogenated Castor Oil in water) were run concurrently as the control. The gene expressions of the melanocyte-specific markers were studied using quantitative real-time PCR. […] In the subsequent PCR reaction, which is carried out with the aid of gene-specific primers for the particular markers and is used for the amplification of the target gene segments, the formation of the PCR products is detected online via a fluorescence signal. The fluorescence signal in this case is proportional to the amount of the formed PCR product. The greater the expression of a specific gene, the greater the amount of the formed PCR product and the greater the fluorescence signal. […]

A further assay has as its system TRP1. Kind of assay: Gene expression by quantitative real-time PCR in reconstructed melanocyte models type VI (Skinethic): TRP1. The protocol: as §1
The next assay relates to gp100. Kind of assay: Gene expression by quantitative real-time PCR in reconstructed melanocyte models type VI (Skinethic): gp100. On the procedure:
as §1
On the technique in general: Quantitative PCR measures a nucleic acid by following its amplification.

In another assay the test system is ckit. Kind of assay: Gene expression by quantitative real-time PCR in reconstructed melanocyte models type VI (Skinethic): ckit. On the procedure: as §1
A further assay deals with Tyrosinase. Kind of assay: Gene expression by quantitative real-time PCR in reconstructed melanocyte models type VI (Skinethic): Tyr. The protocol: as §1

`CCCCCCCCC(CCCCCC)C(=O)OC[C@H](OC(=O)C(CCCCCC)CCCCCCCC)[C@H]1OC(=O)C(OC(=O)C(CCCCCC)CCCCCCCC)=C1OC(=O)C(CCCCCC)CCCCCCCC` (some centres unmarked) [0.05% Vitamin tetraisopalmitate, ascorbyl tetraisopalmitate]: the TRP2 gene expression entry in the assay with TRP2 was “+”. Besides, the TRP1 gene expression result with TRP1 was “−”. Also, the Gp100 gene expression result in the assay with gp100 was “−”. Further, the ckit gene expression in the assay with ckit worked out at 0. Moreover, the Tyr gene expression entry in the assay on Tyrosinase is “+”.
